Columns and labels:
Type in all cases: in vivo
[1] = test system: Surinam grass (Brachiaria decumbens); assay: Test B postemergence; conditions: 13 to 15 days
Text: (§1) Seeds selected from barnyardgrass (Echinochloa crus-galli), Surinam grass (Brachiaria decumbens), cocklebur (Xanthium strumarium), corn (Zea mays), crabgrass (Digitaria sanguinalis), giant foxtail (Setaria faberii), lambsquarters (Chenopodium album), morning glory (Ipomoea hederacea), pigweed (Amaranthus retroflexus), rice (Oryza saliva) and velvetleaf (Abutilon theophrasti) were planted and treated preemergence with test chemicals formulated in a non-phytotoxic solvent mixture which included a surfactant.
(§2) At the same time, plants selected from these crop and weed species and also blackgrass (Alopecurus myosuroides), wheat (Triticum aestivum) and wild oat (Avena fatua) were treated with postemergence applications of test chemicals formulated in the same manner. Plants ranged in height from 2 to 18 cm (1- to 4-leaf stage) for postemergence treatments. Plant species in the flooded paddy test consisted of rice (Oryza saliva), smallflower flatsedge (Cyperus difformis), duck salad (Heteranthera limosa) and barnyardgrass (Echinochloa crus-galli) grown to the 2-leaf stage for testing. Treated plants and controls were maintained in a greenhouse for 13 to 15 days, after which time all species were compared to controls and visually evaluated. Plant response ratings, summarized in Table B, are based on a scale of 0 to 100 where 0 is no effect and 100 is complete control. A dash (-) response means no test result.

[2] = test system: barnyardgrass (Echinochloa crus-galli); assay: Test B postemergence; conditions: 13 to 15 days
Text: as §1, §2

[3] = test system: blackgrass (Alopecurus myosuroides); assay: Test B postemergence; conditions: 13 to 15 days
Text: as §1, §2

[4] = test system: cocklebur (Xanthium strumarium); assay: Test B postemergence; conditions: 13 to 15 days
Text: as §1, §2

corn (Zea mays) [5] = assay: Test B postemergence; conditions: 13 to 15 days
Text: as §1, §2

[6] = test system: crabgrass (Digitaria sanguinalis); assay: Test B postemergence; conditions: 13 to 15 days
Text: as §1, §2

[7] = test system: giant foxtail (Setaria faberii); assay: Test B postemergence; conditions: 13 to 15 days
Text: as §1, §2

[8] = test system: lambsquarters (Chenopodium album); assay: Test B postemergence; conditions: Rate 500 g/ha, scale 0 to 100, 0 is no effect, 100 is complete control, 13 to 15 days
Text: as §1, §2

[9] = test system: morning glory (Ipomoea hederacea); assay: Test B postemergence; conditions: Rate 500 g/ha, scale 0 to 100, 0 is no effect, 100 is complete control, 13 to 15 days
Text: as §1, §2

[10] = test system: pigweed (Amaranthus retroflexus); assay: Test B postemergence; conditions: Rate 500 g/ha, scale 0 to 100, 0 is no effect, 100 is complete control, 13 to 15 days
Text: as §1, §2

[11] = test system: velvetleaf (Abutilon theophrasti); assay: Test B postemergence; conditions: Rate 500 g/ha, scale 0 to 100, 0 is no effect, 100 is complete control, 13 to 15 days
Text: as §1, §2

[12] = test system: wheat (Triticum aestivum); assay: Test B postemergence; conditions: Rate 500 g/ha, scale 0 to 100, 0 is no effect, 100 is complete control, 13 to 15 days
Text: as §1, §2

wild oat (Avena fatua) = assay: Test B postemergence; conditions: Rate 500 g/ha, scale 0 to 100, 0 is no effect, 100 is complete control, 13 to 15 days
Text: as §1, §2

[13] = test system: Surinam grass (Brachiaria decumbens); assay: Test B preemergence
Procedure, shortened: (§3)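 Pre: seeded pots sprayed, chemical in non-phytotoxic solvent/surfactant mix. Post: plants 2–18 cm, 1–4 leaf, same formulation. Greenhouse 13–15 d; visual % control vs untreated, 0–100 scale.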

[14] = test system: barnyardgrass (Echinochloa crus-galli); assay: Test B preemergence
Procedure, shortened: as §3

[15] = test system: cocklebur (Xanthium strumarium); assay: Test B preemergence
Procedure, shortened: as §3

corn (Zea mays) [16] = assay: Test B preemergence
Procedure, shortened: as §3

[17] = test system: crabgrass (Digitaria sanguinalis); assay: Test B preemergence
Procedure, shortened: as §3

[18] = test system: giant foxtail (Setaria faberii); assay: Test B preemergence
Procedure, shortened: as §3

[19] = test system: lambsquarters (Chenopodium album); assay: Test B preemergence
Procedure, shortened: as §3

[20] = test system: morning glory (Ipomoea hederacea); assay: Test B preemergence
Procedure, shortened: as §3

[21] = test system: pigweed (Amaranthus retroflexus); assay: Test B preemergence
Procedure, shortened: as §3

rice (Oryza saliva) [22] = assay: Test B preemergence
Procedure, shortened: as §3

[23] = test system: velvetleaf (Abutilon theophrasti); assay: Test B preemergence
Procedure, shortened: as §3

[24] = test system: barnyardgrass (Echinochloa crus-galli); assay: Test C flooded paddy test; conditions: for Barnyardgrass plant response rating: Flooded Paddy, scale 0 to 100, 0 no effect, 100 complete control; for Plant response rating, Barnyardgrass: flooded paddy test, scale 0 to 100 (0 no effect, 100 complete control)
Procedure, shortened: (§4)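 Greenhouse-maintained for 12 to 14 days after treatment, the paddy plants (2-leaf stage at application) were scored visually against controls. A score of 0 denotes no effect and a score of 100 denotes complete control.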

[25] = test system: duck salad (Heteranthera limosa); assay: Test C flooded paddy test; conditions: for Ducksalad plant response rating: Flooded Paddy, scale 0 to 100, 0 no effect, 100 complete control; for Plant response rating, Ducksalad: flooded paddy test, scale 0 to 100 (0 no effect, 100 complete control)
Procedure, shortened: as §4

rice (Oryza saliva) [26] = assay: Test C flooded paddy test; conditions: for Rice plant response rating: Flooded Paddy, scale 0 to 100, 0 no effect, 100 complete control; for Plant response rating, Rice: flooded paddy test, scale 0 to 100 (0 no effect, 100 complete control)
Procedure, shortened: as §4

[27] = test system: smallflower flatsedge (Cyperus difformis); assay: Test C flooded paddy test; conditions: for Flatsedge plant response rating: Flooded Paddy, scale 0 to 100, 0 no effect, 100 complete control; for Plant response rating, Flatsedge: flooded paddy test, scale 0 to 100 (0 no effect, 100 complete control)
Procedure, shortened: as §4

[28] = Rate 125 g/ha, scale 0 (no effect) to 100 (complete control)
[29] = Rate 500 g/ha, scale 0 to 100, 0 is no effect, 100 is complete control
[30] = Preemergence, Rate 500 g/ha, scale 0 to 100, 0 no effect, 100 complete control
[31] = preemergence, Rate 125 g/ha, scale of 0 to 100 where 0 is no effect and 100 is complete control, 13 to 15 days

## Cc1ccc(N2CCC(n3ccc(C(C)(C)C)n3)C2=O)cc1OCCI (centres unmarked) [Compound 108]
[1]; [28]
  Plant response rating, Surinam grass: 0
[1]; [29]
  Plant response rating, Surinam grass: 20
[2]; [28]
  Plant response rating, Barnyardgrass: 0
[2]; [29]
  Plant response rating, Barnyardgrass: 0
[3]; [28]
  Plant response rating, Blackgrass: 0
[3]; [29]
  Plant response rating, Blackgrass: 0
[4]; [28]
  Plant response rating, Cocklebur: 20
[4]; [29]
  Plant response rating, Cocklebur: 40
Corn (Zea mays) [5]; [28]
  Plant response rating, Corn: 0
Corn (Zea mays) [5]; [29]
  Plant response rating, Corn: 0
[6]; [28]
  Plant response rating, Crabgrass: 0
[6]; [29]
  Plant response rating, Crabgrass: 0
[7]; [28]
  Plant response rating, Foxtail, Giant: 0
[7]; [29]
  Plant response rating, Foxtail, Giant: 0
[8]
  Plant response rating, Lambsquarters: 80
[9]
  Plant response rating, Morningglory: 70
[10]
  Plant response rating, Pigweed: 40
[11]
  Plant response rating, Velvetleaf: 60
[12]
  Plant response rating, Wheat: 0
Wild oat (Avena fatua)
  Plant response rating, Wild Oat: 0
[13]; [30]
  Plant response rating, Surinam grass: 30
[13]; [31]
  Plant response rating, Surinam grass: 0
[14]; [30]
  Plant response rating, Barnyardgrass: 0
[14]; [31]
  Plant response rating, Barnyardgrass: 0
[15]; [30]
  Plant response rating, Cocklebur: 0
[15]; [31]
  Plant response rating, Cocklebur: 0
Corn (Zea mays) [16]; [30]
  Plant response rating, Corn: 0
Corn (Zea mays) [16]; [31]
  Plant response rating, Corn: 0
[17]; [30]
  Plant response rating, Crabgrass: 0
[17]; [31]
  Plant response rating, Crabgrass: 0
[18]; [30]
  Plant response rating, Foxtail, Giant: 20
[18]; [31]
  Plant response rating, Foxtail, Giant: 0
[19]; [30]
  Plant response rating, Lambsquarters: 100
[19]; [31]
  Plant response rating, Lambsquarters: 100
[20]; [30]
  Plant response rating, Morningglory: 0
[20]; [31]
  Plant response rating, Morningglory: 0
[21]; [30]
  Plant response rating, Pigweed: 60
[21]; [31]
  Plant response rating, Pigweed: 20
Rice (Oryza saliva) [22]; [30]
  Plant response rating, Rice: 0
Rice (Oryza saliva) [22]; [31]
  Plant response rating, Rice: 0
[23]; [30]
  Plant response rating, Velvetleaf: 0
[23]; [31]
  Plant response rating, Velvetleaf: 0
[24]; Rate 250 g/ha
  Barnyardgrass plant response rating: 0
[24]; Rate 500 g/ha
  Barnyardgrass plant response rating: 20
[24]; Rate 62 g/ha
  Plant response rating, Barnyardgrass: 0
[24]; Rate 125 g/ha
  Plant response rating, Barnyardgrass: 0
[25]; Rate 250 g/ha
  Ducksalad plant response rating: 0
[25]; Rate 500 g/ha
  Ducksalad plant response rating: 0
[25]; Rate 62 g/ha
  Plant response rating, Ducksalad: 0
[25]; Rate 125 g/ha
  Plant response rating, Ducksalad: 0
Rice (Oryza saliva) [26]; Rate 250 g/ha
  Rice plant response rating: 0
Rice (Oryza saliva) [26]; Rate 500 g/ha
  Rice plant response rating: 0
Rice (Oryza saliva) [26]; Rate 62 g/ha
  Plant response rating, Rice: 0
Rice (Oryza saliva) [26]; Rate 125 g/ha
  Plant response rating, Rice: 0
[27]; Rate 250 g/ha
  Flatsedge plant response rating: 30
[27]; Rate 500 g/ha
  Flatsedge plant response rating: 90
[27]; Rate 62 g/ha
  Plant response rating, Flatsedge: 0
[27]; Rate 125 g/ha
  Plant response rating, Flatsedge: 0

## Cc1ccc(N2CCC(n3ccc(C(C)(C)C)n3)C2=O)cc1OC(C)C (centres unmarked) [Compound 110]
[1]; [28]
  Plant response rating, Surinam grass: 0
[1]; [29]
  Plant response rating, Surinam grass: 0
[2]; [28]
  Plant response rating, Barnyardgrass: 0
[2]; [29]
  Plant response rating, Barnyardgrass: 0
[3]; [28]
  Plant response rating, Blackgrass: 0
[3]; [29]
  Plant response rating, Blackgrass: 0
[4]; [28]
  Plant response rating, Cocklebur: 30
[4]; [29]
  Plant response rating, Cocklebur: 30
Corn (Zea mays) [5]; [28]
  Plant response rating, Corn: 0
Corn (Zea mays) [5]; [29]
  Plant response rating, Corn: 0
[6]; [28]
  Plant response rating, Crabgrass: 0
[6]; [29]
  Plant response rating, Crabgrass: 0
[7]; [28]
  Plant response rating, Foxtail, Giant: 0
[7]; [29]
  Plant response rating, Foxtail, Giant: 0
[8]
  Plant response rating, Lambsquarters: 90
[9]
  Plant response rating, Morningglory: 60
[10]
  Plant response rating, Pigweed: 70
[11]
  Plant response rating, Velvetleaf: 70
[12]
  Plant response rating, Wheat: 0
Wild oat (Avena fatua)
  Plant response rating, Wild Oat: 0
[13]; [30]
  Plant response rating, Surinam grass: 40
[13]; [31]
  Plant response rating, Surinam grass: 0
[14]; [30]
  Plant response rating, Barnyardgrass: 0
[14]; [31]
  Plant response rating, Barnyardgrass: 30
[15]; [30]
  Plant response rating, Cocklebur: 70
[15]; [31]
  Plant response rating, Cocklebur: 0
Corn (Zea mays) [16]; [30]
  Plant response rating, Corn: 0
Corn (Zea mays) [16]; [31]
  Plant response rating, Corn: 0
[17]; [30]
  Plant response rating, Crabgrass: 100
[17]; [31]
  Plant response rating, Crabgrass: 100
[18]; [30]
  Plant response rating, Foxtail, Giant: 50
[18]; [31]
  Plant response rating, Foxtail, Giant: 0
[19]; [30]
  Plant response rating, Lambsquarters: 100
[19]; [31]
  Plant response rating, Lambsquarters: 0
[20]; [30]
  Plant response rating, Morningglory: 0
[20]; [31]
  Plant response rating, Morningglory: 0
[21]; [30]
  Plant response rating, Pigweed: 100
[21]; [31]
  Plant response rating, Pigweed: 100
Rice (Oryza saliva) [22]; [30]
  Plant response rating, Rice: 0
Rice (Oryza saliva) [22]; [31]
  Plant response rating, Rice: 0
[23]; [30]
  Plant response rating, Velvetleaf: 80
[23]; [31]
  Plant response rating, Velvetleaf: 0
[24]; Rate 250 g/ha
  Barnyardgrass plant response rating: 70
[24]; Rate 500 g/ha
  Barnyardgrass plant response rating: 80
[24]; Rate 62 g/ha
  Plant response rating, Barnyardgrass: 0
[24]; Rate 125 g/ha
  Plant response rating, Barnyardgrass: 0
[25]; Rate 250 g/ha
  Ducksalad plant response rating: 70
[25]; Rate 500 g/ha
  Ducksalad plant response rating: 70
[25]; Rate 62 g/ha
  Plant response rating, Ducksalad: 10
[25]; Rate 125 g/ha
  Plant response rating, Ducksalad: 20
Rice (Oryza saliva) [26]; Rate 250 g/ha
  Rice plant response rating: 70
Rice (Oryza saliva) [26]; Rate 500 g/ha
  Rice plant response rating: 80
Rice (Oryza saliva) [26]; Rate 62 g/ha
  Plant response rating, Rice: 0
Rice (Oryza saliva) [26]; Rate 125 g/ha
  Plant response rating, Rice: 30
[27]; Rate 250 g/ha
  Flatsedge plant response rating: 100
[27]; Rate 500 g/ha
  Flatsedge plant response rating: 100
[27]; Rate 62 g/ha
  Plant response rating, Flatsedge: 50
[27]; Rate 125 g/ha
  Plant response rating, Flatsedge: 50

Reference: patent publication US7138361B2, “Herbicidal heterocycles” (E. I. du Pont de Nemours and Company, priority 2000, dated 2006)
